Reference: US20080058368A1, “4,5,6,7-Tetrahydro-[1,2]Dithiolo[4,3-C] Pyridine-3-Thione Compounds” (priority 2004, published 2008)

Assays:
[1] = test system: Glutathione S-transferase A (GSTA); assay: GSTA expression induced by C/EBPβ activation, immunochemical method; type: cell-based; parameters: key: +: similar activation effects to oltipraz; ++: stronger activation effects than oltipraz; conditions: 30 μM, 24 hours, nuclear fractions or lysates, relative to oltipraz
Protocol: (§1) The present experimental example is to confirm C/EBPβ activation by using Compound 1 and Compound 2 which were prepared in the above Examples, and a degree of increase of Glutathione S-transferase A (GSTA), a representative gene which is induced by C/EBPβ activation. […] 0.7 mg/ml of MTT (yellow tetrazolium salt) was added thereto and further cultured for 4 hours. Since MTT is reduced to insoluble formazan crystal in survived cells, the produced crystal was dissolved with DMSO solvent, and the absorbance at 595 nm was measured. The cells were cultured with the newly prepared compounds except for the compounds which kill cells, i.e., Compound 1 and Compound 2 (each 30 μM), for 24 hours, and C/EBPβ activation and GSTA expression in nuclear fractions or lysates obtained from the treated cells were measured by immunochemical method.
When C/EBPβ gene is deleted in animals, regeneration of live tissue is impossible [Greenbaum et al., J Clin Invest. 1998; 102(5):996-1007]. C/EBPβ activation inhibits transforming growth factors (TGF-β) which is a mediating factor of hepatic fibrosis [Kang et al., FASEB J. 2002; 16(14):1988-90]. Therefore, C/EBPβ activation plays an important role in liver tissue regeneration and hepatic fibrosis inhibition. […]

[2] = test system: C/EBPβ; assay: C/EBPβ activation (phosphorylation, nuclear translocation) by immunochemical method in treated cells; type: cell-based; parameters: key to C/EBPβ activation: O: same enzyme induction as oltipraz; OO: stronger enzyme induction than oltipraz; conditions: for C/EBPβ activation: 30 μM, 24 hours, nuclear fractions or lysates, relative to oltipraz; for phosphorylation of 105Serine residue of C/EBPβ: after 3 hours from the culture; for p-C/EBPβ (105Serine) localisation, cytoplasmic to nuclear fractions: after 6 hours
Protocol: as §1
When C/EBPβ gene is deleted in animals, regeneration of live tissue is impossible [Greenbaum et al., J Clin Invest. 1998; 102(5):996-1007]. C/EBPβ activation inhibits transforming growth factors (TGF-β) which is a mediating factor of hepatic fibrosis [Kang et al., FASEB J. 2002; 16(14):1988-90]. Therefore, C/EBPβ activation plays an important role in liver tissue regeneration and hepatic fibrosis inhibition. C/EBPβ activation process takes place by mediating phosphorylation of specific amino acid residue, i.e., ^105Serine residue of C/EBPβ [Buck et al., Mol. Cell. 1999; 4(6):1087-92]. Under this background art, it was observed whether or not direct increase of RSK1's activity by the compounds of the present invention induces phosphorylation of ^105Serine residue of C/EBPβ. […] In this experimental example, oltipraz was used as comparative example.

| Compound | GSTA induction [1] | degree of phosphorylation of 188Threonine residue of C/EBPβ [2] | C/EBPβ activation [2] | phosphorylation of 105Serine residue of C/EBPβ [2] | p-C/EBPβ (105Serine) localisation, cytoplasmic to nuclear fractions [2] |
| --- | --- | --- | --- | --- | --- |
| S=c1ssc2c1CN(Cc1ccccc1)CC2 [Compound 1, 5-benzyl-4,5,6,7-tetrahydro-1,2-dithiolo[4,3-c]pyridine-3-thion] | ++ | not changed at all | O | increased | moved into the nuclear fractions |
| CCOC(=O)N1CCc2ssc(=S)c2C1 [Compound 2, 3-thioxo-6,7-dihydro-3H,4H-1,2-dithiolo[4,3-c]pyridine-5-carboxylic acid ethyl ester] | ++ | not changed at all | O | increased | moved into the nuclear fractions |
